Laboratory results: ChEMBL document CHEMBL4507279, “Data for DCP probe BI-9627” (2021)

Key:
[1] = target: Casein kinase I isoform alpha-like (Homo sapiens) (UniProt Q8N752); details: Compound concentration 1000.0 nM
[2] = target: Mitogen-activated protein kinase 10 (Homo sapiens) (UniProt P53779); details: Compound concentration 1000.0 nM
[3] = target: Mitogen-activated protein kinase kinase kinase 1 (Homo sapiens) (UniProt Q13233); details: Compound concentration 1000.0 nM
[4] = target: Ephrin type-A receptor 4 (Homo sapiens) (UniProt P54764); details: Compound concentration 1000.0 nM
[5] = target: Homeodomain-interacting protein kinase 2 (Homo sapiens) (UniProt Q9H2X6); details: Compound concentration 1000.0 nM
[6] = target: Calcium/calmodulin-dependent protein kinase type 1G (Homo sapiens) (UniProt Q96NX5); details: Compound concentration 1000.0 nM
[7] = target: Leucine-rich repeat serine/threonine-protein kinase 2 (Homo sapiens) (UniProt Q5S007); details: Compound concentration 1000.0 nM
[8] = target: Serine/threonine-protein kinase 32C (Homo sapiens) (UniProt Q86UX6); details: Compound concentration 1000.0 nM
[9] = target: Mast/stem cell growth factor receptor Kit (Homo sapiens) (UniProt P10721); details: Compound concentration 1000.0 nM
[10] = target: Tyrosine-protein kinase FRK (Homo sapiens) (UniProt P42685); details: Compound concentration 1000.0 nM
[11] = target: Mitogen-activated protein kinase kinase kinase 14 (Homo sapiens) (UniProt Q99558); details: Compound concentration 1000.0 nM
[12] = target: Mitogen-activated protein kinase kinase kinase kinase 1 (Homo sapiens) (UniProt Q92918); details: Compound concentration 1000.0 nM
[13] = test system: Epidermal growth factor receptor (Homo sapiens), P00533 [T790M]; details: Compound concentration 1000.0 nM
[14] = target: Vascular endothelial growth factor receptor 2 (Homo sapiens) (UniProt P35968); details: Compound concentration 1000.0 nM
[15] = target: Peripheral plasma membrane protein CASK (Homo sapiens) (UniProt O14936); details: Compound concentration 1000.0 nM
[16] = target: Serine/threonine-protein kinase 35 (Homo sapiens) (UniProt Q8TDR2); details: Compound concentration 1000.0 nM
[17] = test system: Receptor-type tyrosine-protein kinase FLT3 (Homo sapiens), P36888 [D835Y]; details: Compound concentration 1000.0 nM
[18] = test system: Phosphatidylinositol 4,5-bisphosphate 3-kinase catalytic subunit alpha isoform (Homo sapiens), P42336 [E545K]; details: Compound concentration 1000.0 nM
[19] = target: Casein kinase I isoform gamma-3 (Homo sapiens) (UniProt Q9Y6M4); details: Compound concentration 1000.0 nM
[20] = target: T1, Muscarinic acetylcholine receptor M1 (Homo sapiens) (UniProt P11229); details: Compound concentration 10.0 uM
T1 sequence (whole entry): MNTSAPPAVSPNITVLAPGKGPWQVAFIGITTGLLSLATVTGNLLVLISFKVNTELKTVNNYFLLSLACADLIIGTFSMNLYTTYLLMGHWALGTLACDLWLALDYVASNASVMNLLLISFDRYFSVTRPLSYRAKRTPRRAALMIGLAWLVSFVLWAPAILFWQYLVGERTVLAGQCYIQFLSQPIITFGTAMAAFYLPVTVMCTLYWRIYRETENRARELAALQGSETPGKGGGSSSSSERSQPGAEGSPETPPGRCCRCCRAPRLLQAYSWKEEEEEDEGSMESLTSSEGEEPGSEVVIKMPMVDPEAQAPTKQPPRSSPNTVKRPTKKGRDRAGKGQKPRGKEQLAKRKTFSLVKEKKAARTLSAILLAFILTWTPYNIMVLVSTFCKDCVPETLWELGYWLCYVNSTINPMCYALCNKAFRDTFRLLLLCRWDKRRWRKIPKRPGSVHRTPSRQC

[21] = target: Sigma intracellular receptor 2 (Homo sapiens) (UniProt Q5BJF2); details: Compound concentration 10.0 uM
[22] = target: Ribosomal protein S6 kinase alpha-6 (Homo sapiens) (UniProt Q9UK32); details: Compound concentration 1000.0 nM
[23] = target: Tyrosine-protein kinase Srms (Homo sapiens) (UniProt Q9H3Y6); details: Compound concentration 1000.0 nM
[24] = target: Serine/threonine-protein kinase BRSK2 (Homo sapiens) (UniProt Q8IWQ3); details: Compound concentration 1000.0 nM
[25] = target: GABA-A receptor; anion channel (Rattus norvegicus) (UniProt O09028+P15431+P18506+P18508+P19969+P20236+P23574+P23576+P28471+P28473+P30191+P62813+P63079+P63138+Q91ZM7+Q9ES14); details: Compound concentration 10.0 uM
[26] = target: Myosin light chain kinase (Homo sapiens) (UniProt Q32MK0); details: Compound concentration 1000.0 nM
[27] = target: Phosphatidylinositol 4,5-bisphosphate 3-kinase catalytic subunit delta isoform (Homo sapiens) (UniProt O00329); details: Compound concentration 1000.0 nM
[28] = target: Mast/stem cell growth factor receptor Kit (Homo sapiens) (UniProt P10721); details: Compound concentration 1000.0 nM; remark: listed apart in the source
[29] = target: Muscarinic acetylcholine receptor M4 (Homo sapiens) (UniProt P08173); details: Compound concentration 10.0 uM
[30] = target: cAMP-dependent protein kinase catalytic subunit beta (Homo sapiens) (UniProt P22694); details: Compound concentration 1000.0 nM
[31] = target: Tyrosine-protein kinase ABL1 (Homo sapiens) (UniProt P00519); details: Compound concentration 1000.0 nM
[32] = target: Tyrosine-protein kinase Mer (Homo sapiens) (UniProt Q12866); details: Compound concentration 1000.0 nM
[33] = target: Serine/threonine-protein kinase TAO1 (Homo sapiens) (UniProt Q7L7X3); details: Compound concentration 1000.0 nM
[34] = target: Calcium/calmodulin-dependent protein kinase type IV (Homo sapiens) (UniProt Q16566); details: Compound concentration 1000.0 nM
[35] = test system: Tyrosine-protein kinase ABL1 (Homo sapiens), P00519 [Q252H]; details: Compound concentration 1000.0 nM
[36] = target: Histamine H1 receptor (Homo sapiens) (UniProt P35367); details: Compound concentration 10.0 uM
[37] = target: Phosphorylase b kinase regulatory subunit alpha, liver isoform (Homo sapiens) (UniProt P46019); details: Compound concentration 1000.0 nM

Mast/stem cell growth factor receptor Kit (Homo sapiens), sequence (P10721 whole entry): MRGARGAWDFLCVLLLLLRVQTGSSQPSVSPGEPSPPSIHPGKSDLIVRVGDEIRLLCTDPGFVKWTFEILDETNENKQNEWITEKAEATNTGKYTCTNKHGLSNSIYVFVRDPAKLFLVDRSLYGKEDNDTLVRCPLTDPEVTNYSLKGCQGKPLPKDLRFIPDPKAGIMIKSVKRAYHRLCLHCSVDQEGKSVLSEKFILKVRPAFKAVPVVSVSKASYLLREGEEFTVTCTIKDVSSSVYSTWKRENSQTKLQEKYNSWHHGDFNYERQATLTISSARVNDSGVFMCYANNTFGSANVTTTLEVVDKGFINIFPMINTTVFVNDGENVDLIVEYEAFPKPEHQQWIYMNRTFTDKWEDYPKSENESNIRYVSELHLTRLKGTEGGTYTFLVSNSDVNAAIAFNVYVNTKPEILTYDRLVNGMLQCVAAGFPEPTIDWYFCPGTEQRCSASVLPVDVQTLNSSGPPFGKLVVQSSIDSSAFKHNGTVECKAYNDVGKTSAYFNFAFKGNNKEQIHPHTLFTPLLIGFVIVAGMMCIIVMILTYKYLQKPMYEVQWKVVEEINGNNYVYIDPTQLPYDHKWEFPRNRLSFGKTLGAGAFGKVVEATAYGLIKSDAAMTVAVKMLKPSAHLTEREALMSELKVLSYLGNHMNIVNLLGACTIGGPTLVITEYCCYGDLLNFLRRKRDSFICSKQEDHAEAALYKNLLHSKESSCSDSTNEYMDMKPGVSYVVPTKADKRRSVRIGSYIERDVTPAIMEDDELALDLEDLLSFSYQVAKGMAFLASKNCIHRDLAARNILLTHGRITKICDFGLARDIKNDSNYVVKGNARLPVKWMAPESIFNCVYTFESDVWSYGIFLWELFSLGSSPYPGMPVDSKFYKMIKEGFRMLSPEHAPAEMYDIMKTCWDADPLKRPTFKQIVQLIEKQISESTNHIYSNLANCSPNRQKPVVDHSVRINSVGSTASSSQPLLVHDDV
Peripheral plasma membrane protein CASK (Homo sapiens), sequence (O14936 whole entry): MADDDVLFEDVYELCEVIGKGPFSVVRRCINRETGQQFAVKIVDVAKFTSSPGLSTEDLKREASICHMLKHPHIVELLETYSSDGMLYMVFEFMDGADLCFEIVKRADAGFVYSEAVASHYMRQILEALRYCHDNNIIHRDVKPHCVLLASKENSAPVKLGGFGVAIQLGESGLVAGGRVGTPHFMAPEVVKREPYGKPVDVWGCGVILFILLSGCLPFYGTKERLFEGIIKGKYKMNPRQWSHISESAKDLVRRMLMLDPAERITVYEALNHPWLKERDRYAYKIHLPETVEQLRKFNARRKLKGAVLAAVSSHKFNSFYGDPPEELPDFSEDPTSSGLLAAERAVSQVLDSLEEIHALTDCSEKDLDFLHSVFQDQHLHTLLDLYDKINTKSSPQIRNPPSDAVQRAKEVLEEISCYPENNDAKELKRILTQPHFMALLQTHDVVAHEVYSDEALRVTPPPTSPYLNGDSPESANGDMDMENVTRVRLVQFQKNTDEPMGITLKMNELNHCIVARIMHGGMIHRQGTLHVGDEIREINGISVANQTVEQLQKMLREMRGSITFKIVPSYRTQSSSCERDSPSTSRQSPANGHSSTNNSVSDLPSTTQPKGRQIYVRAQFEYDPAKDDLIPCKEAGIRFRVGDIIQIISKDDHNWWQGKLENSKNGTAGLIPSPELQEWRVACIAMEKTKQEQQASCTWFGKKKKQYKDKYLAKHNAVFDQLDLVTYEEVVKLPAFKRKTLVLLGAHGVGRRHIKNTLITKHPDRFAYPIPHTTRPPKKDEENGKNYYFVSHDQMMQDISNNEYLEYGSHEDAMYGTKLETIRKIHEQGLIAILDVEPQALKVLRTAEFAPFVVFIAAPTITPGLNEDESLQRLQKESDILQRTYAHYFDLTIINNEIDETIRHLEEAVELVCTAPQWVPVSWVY
Mitogen-activated protein kinase kinase kinase 14 (Homo sapiens), sequence (Q99558 whole entry, looked up): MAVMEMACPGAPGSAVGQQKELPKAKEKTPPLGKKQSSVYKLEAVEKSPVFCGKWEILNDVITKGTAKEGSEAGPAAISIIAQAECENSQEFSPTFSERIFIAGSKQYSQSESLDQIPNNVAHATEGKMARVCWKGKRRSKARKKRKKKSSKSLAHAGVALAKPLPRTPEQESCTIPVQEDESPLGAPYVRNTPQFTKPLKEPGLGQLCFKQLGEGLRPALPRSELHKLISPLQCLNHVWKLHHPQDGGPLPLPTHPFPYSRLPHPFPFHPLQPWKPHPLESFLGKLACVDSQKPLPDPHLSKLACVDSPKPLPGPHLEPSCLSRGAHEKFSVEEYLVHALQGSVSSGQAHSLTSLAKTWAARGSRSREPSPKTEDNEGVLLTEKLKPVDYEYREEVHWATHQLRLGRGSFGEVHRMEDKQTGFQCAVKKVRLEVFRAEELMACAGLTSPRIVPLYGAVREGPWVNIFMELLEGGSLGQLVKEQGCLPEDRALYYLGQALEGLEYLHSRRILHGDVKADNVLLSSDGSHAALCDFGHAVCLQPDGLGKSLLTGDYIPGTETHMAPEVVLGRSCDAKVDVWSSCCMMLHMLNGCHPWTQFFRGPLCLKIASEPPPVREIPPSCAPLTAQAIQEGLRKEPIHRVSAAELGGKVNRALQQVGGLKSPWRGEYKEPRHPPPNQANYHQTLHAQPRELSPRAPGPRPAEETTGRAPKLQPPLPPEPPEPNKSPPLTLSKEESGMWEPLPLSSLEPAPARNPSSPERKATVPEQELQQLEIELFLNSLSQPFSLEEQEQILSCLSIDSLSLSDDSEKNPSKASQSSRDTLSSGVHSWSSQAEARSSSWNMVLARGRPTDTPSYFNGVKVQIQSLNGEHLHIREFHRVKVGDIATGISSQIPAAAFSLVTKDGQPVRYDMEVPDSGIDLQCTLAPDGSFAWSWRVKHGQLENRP
Homeodomain-interacting protein kinase 2 (Homo sapiens), sequence (Q9H2X6 whole entry, looked up): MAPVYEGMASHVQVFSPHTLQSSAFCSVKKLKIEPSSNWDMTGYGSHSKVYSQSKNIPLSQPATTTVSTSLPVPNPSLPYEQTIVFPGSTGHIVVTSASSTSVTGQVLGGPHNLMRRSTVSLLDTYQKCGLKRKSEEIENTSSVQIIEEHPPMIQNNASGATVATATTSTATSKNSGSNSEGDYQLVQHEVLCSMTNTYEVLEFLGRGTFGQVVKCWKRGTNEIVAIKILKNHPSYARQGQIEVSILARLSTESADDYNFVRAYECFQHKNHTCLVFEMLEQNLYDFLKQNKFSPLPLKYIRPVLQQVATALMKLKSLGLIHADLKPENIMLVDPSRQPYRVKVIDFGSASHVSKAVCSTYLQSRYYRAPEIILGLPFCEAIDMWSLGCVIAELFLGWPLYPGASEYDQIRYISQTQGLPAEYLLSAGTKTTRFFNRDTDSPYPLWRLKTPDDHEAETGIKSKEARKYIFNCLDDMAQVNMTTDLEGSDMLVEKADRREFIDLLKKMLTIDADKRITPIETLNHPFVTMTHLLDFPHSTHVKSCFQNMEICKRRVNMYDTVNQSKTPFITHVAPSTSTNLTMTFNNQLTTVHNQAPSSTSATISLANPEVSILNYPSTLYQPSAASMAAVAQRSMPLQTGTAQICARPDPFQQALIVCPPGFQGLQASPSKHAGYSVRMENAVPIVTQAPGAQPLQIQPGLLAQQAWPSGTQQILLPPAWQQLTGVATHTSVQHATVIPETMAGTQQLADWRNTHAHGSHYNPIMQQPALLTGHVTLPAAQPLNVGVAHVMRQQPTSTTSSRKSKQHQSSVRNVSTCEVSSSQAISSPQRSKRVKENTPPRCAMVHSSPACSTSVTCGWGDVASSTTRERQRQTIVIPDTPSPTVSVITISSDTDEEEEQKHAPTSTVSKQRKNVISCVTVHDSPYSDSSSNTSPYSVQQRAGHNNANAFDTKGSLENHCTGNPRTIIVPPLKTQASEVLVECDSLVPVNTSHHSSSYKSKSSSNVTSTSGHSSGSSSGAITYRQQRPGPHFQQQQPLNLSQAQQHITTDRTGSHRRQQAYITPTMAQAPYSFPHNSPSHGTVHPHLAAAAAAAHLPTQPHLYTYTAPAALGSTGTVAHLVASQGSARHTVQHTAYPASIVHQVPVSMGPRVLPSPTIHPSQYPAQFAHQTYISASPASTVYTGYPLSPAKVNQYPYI
Ephrin type-A receptor 4 (Homo sapiens), sequence (P54764 whole entry): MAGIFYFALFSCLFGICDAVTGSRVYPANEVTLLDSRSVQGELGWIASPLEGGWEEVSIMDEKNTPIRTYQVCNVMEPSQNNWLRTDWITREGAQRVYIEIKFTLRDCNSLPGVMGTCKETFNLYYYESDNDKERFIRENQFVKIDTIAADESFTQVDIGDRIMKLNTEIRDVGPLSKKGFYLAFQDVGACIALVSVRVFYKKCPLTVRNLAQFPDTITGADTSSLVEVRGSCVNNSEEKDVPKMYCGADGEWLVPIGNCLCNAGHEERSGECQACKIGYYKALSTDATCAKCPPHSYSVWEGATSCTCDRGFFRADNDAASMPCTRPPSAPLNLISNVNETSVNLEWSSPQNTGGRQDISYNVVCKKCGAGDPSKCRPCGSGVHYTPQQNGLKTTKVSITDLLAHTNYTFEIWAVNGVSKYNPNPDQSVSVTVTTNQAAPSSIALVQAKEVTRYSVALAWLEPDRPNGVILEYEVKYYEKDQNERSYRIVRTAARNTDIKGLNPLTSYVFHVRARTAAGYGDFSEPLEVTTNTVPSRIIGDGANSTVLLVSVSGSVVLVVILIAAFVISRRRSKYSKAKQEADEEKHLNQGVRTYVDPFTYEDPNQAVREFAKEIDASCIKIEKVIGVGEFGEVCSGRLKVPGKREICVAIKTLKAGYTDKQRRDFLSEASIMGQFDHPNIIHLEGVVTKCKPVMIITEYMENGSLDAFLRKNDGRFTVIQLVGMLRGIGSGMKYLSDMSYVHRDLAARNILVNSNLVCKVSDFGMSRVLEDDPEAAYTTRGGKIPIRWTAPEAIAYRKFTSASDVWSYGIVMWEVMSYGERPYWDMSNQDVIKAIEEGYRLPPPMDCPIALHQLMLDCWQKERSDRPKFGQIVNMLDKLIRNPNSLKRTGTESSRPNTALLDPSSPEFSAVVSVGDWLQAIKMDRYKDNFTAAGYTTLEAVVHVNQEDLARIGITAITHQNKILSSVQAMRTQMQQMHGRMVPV

CC(=O)N1CCC(c2ccc(C(=O)NC(=N)N)cc2C(F)(F)F)CC1 [BI 9627]
active: residual activity [27] 34%
inactive: residual activity [1] 100% | residual activity [2] 100% | residual activity [3] 96% | residual activity [4] 100% | residual activity [5] 100% | residual activity [6] 100% | residual activity [7] 100% | residual activity [8] 100% | residual activity [9] 95% | residual activity [10] 100% | residual activity [11] 100% | residual activity [12] 100% | residual activity [13] 100% | residual activity [14] 93% | residual activity [15] 100% | residual activity [16] 100% | residual activity [17] 100% | residual activity [18] 76% | residual activity [19] 100% | inhibition [20] 12.4% | inhibition [21] -6.34% | residual activity [22] 96% | residual activity [23] 80% | residual activity [24] 100% | inhibition [25] 14.6% | residual activity [26] 100% | residual activity [28] 95% | inhibition [29] 22.3% | residual activity [30] 100% | residual activity [31] 93% | residual activity [32] 81% | residual activity [33] 100% | residual activity [34] 93% | residual activity [35] 100% | inhibition [36] 7.6% | residual activity [37] 100%

CC(=O)N1CCC(c2ccc(C(=O)NC3=NCCN3)cc2C(F)(F)F)CC1 [BI 0054]
inactive: residual activity [1] 100% | residual activity [2] 100% | residual activity [3] 86% | residual activity [4] 100% | residual activity [5] 100% | residual activity [6] 100% | residual activity [7] 100% | residual activity [8] 100% | residual activity [9] 91% | residual activity [10] 97% | residual activity [11] 95% | residual activity [12] 100% | residual activity [13] 100% | residual activity [14] 80% | residual activity [15] 85% | residual activity [16] 100% | residual activity [17] 98% | residual activity [18] 87% | residual activity [19] 100% | inhibition [20] -7.86% | inhibition [21] -0.12% | residual activity [22] 94% | residual activity [23] 89% | residual activity [24] 100% | inhibition [25] 17% | residual activity [26] 100% | residual activity [27] 100% | residual activity [28] 100% | inhibition [29] 19.9% | residual activity [30] 100% | residual activity [31] 95% | residual activity [32] 100% | residual activity [33] 100% | residual activity [34] 92% | residual activity [35] 86% | inhibition [36] -0.162% | residual activity [37] 100%
